Legend:
[1] = target: T1, hMincle-Ig (Homo sapiens, UniProt Q9ULY5); assay: In vitro Mincle binding assay (ELISA) with hMincle-Ig fusion protein; conditions: plate-coated ligand 0.1 nmol/well
T1 construct: using soluble Mincle-Ig fusion-proteins; made in house
T1 sequence (Q9ULY5 41-219 limits assumed): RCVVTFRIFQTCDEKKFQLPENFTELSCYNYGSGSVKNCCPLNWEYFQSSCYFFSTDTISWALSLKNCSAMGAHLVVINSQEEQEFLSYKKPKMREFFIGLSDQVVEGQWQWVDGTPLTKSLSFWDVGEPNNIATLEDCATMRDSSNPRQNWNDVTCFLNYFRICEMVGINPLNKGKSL
Experimental: (§1) Preparation of ligand-coated plates: Brartemicin analogues 9a-9i, TDM (Carbosynth, Sigma Aldrich), and TDB^14 were dissolved in CHCl3:MeOH (2:1, 1 mM), diluted in isopropanol ([…]) and added to 96-well plates (20 μL/well). The solvents were evaporated and the coated plates were used immediately.
(§2) In vitro Mincle binding assay: The preparation of mMincle- and hMincle-Ig fusion proteins have been previously described. Plate-coated glycolipids 9a-i, TDB, and TDM were incubated with hMincle-Ig, mMincle-Ig, or hIgG1-Fc (Ig) [3 μg/mL in binding buffer (20 mM Tris-HCl, 150 mM NaCl, 1 mM CaCl2), 2 mM MgCl2, pH 7.0)]. Detection of bound protein was achieved via incubation with anti-hIgG-HRP followed by the addition of a colorimetric substrate and measurement of OD at 450 nm. Background was accounted for by subtracting the hIgG1-Fc OD450 values from fusion protein OD450 values
(§3) The synthesised brartemicin analogues prepared in Example 1 were first tested for their ability to bind to both human and murine Mincle in an enzyme-linked immunosorbent assay (ELISA) using soluble Mincle-Ig fusion-proteins (FIG. 1a).

[2] = target: T2, mMincle+FcRγ (Mus musculus, UniProt Q9R0Q8); assay: 2B4-NFAT-GFP reporter cells expressing mMincle+FcRγ; type: cell-based, murine; conditions: ligand-coated plates 0.01, 0.1 or 1 nmol/well, 18 hours
T2 construct: expressed in transfected cells; host or cells: 2B4-NFAT-GFP reporter cells
T2 sequence (Q9R0Q8 1-214): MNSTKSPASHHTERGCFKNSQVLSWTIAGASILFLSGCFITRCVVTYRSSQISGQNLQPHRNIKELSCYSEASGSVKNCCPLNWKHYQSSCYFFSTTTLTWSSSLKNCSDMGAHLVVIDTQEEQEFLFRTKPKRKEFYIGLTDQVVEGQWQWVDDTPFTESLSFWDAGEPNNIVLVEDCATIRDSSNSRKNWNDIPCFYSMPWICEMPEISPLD
T2 sequence (P20491 19-86 partner): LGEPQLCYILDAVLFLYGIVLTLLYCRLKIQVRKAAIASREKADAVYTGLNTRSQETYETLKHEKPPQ
Experimental: as §1
2B4-NFAT-GFP reporter cells: 2B4-NFAT-GFP reporter cells expressing mMincle+FcRγ, hMincle+FcRγ, or FcRγ only have been previously described. […] The reporter cells were harvested, stained with propidium iodide, and analysed for NFAT-GFP expression using flow cytometry (FACS Calibur).
To determine whether the Mincle binding observed in Example 1 correlated with cellular activation, nuclear factor of activated T cells (NFAT)-green fluorescent protein (GFP) reporter cells expressing mMincle or hMincle coupled to FcRγ were stimulated using plates coated with TDM, TDB, brartemicin (9i), or analogues 9a-9h.
Activation of the reporter cells was measured through the production of GFP, which was monitored by flow cytometry (FIGS. 1b and 3c).
With the compounds 43a-h in hand, the ability of these analogues to bind and signal through Mincle was assessed (FIG. 5). Accordingly, NFAT-GFP reporter cells expressing mMincle+FcRγ, hMincle+FcRγ, or FcRγ-only were stimulated with the 2G-brartemicin analogues 43a-h, TDB, iPrOH, or the p-OC18H37 substituted analogue, 9f. Reporter cell activation was measured by the production of NFAT-GFP, which was analysed by flow cytometry.

[3] = system: OT-II CD4+ T-cells co-cultured with GM-CSF BMDMs; assay: BMDM / OT-II T-cell co-culture, OVA-specific IFN-γ and IL-17; type: cell-based, mice; conditions: 48 hours
Experimental: Cytokine analysis: IL-1β, IFN-γ, IL-6, TNF-α (BD Biosciences), IL-17, and MIP-2 (R&D) levels were determined via sandwich ELISA according to the manufacturer's instructions.
BMDC-OT-II T-cell co-cuture: A mixture of OT-II cells (1×10^5 cells/100 μL) and BMDCs (1×10^4 cells/100 μL) were stimulated with plate coated glycolipd (0.1 nmol/well) or iPrOH only (20 μL/well) and increasing concentrations of OVA (0, 0.1, or 1 μM). After 48 or 72 hours, the supernatant was collected and ELISA was employed to determine the levels of IFN-γ and IL-17.
To evaluate the potential of C18dMeBrar (9a) as a Th1/Th17 adjuvant, GM-CSF BMDMs and T-cells from OVA-specific OT-II TCR Tg mice were co-cultured on plates coated with TDM (0.01 nmol/well), TDB (0.01 nmol/well), or C18dMeBrar (9a, 0.01 nmol/well). The cells were stimulated with OVA (0, 0.1, and 1 μM), and after 48 hours, the supernatant was collected. Levels of the key Th1 cytokine IFN-γ, which is indicative of an enhanced host defence response, and the Th17 cytokine IL-17 were measured via ELISA (FIG. 3). […] Antigen-specific secretion of IFN-γ however, was not enhanced by treatment with 9a.

[4] = target: T3, mMincle-Ig (Mus musculus, UniProt Q9R0Q8); assay: In vitro Mincle binding assay (ELISA) with mMincle-Ig fusion protein; parameters: species or system murine; conditions: plate-coated ligand 0.1 nmol/well
T3 construct: using soluble Mincle-Ig fusion-proteins; made in house
T3 sequence (Q9R0Q8 46-214 limits assumed): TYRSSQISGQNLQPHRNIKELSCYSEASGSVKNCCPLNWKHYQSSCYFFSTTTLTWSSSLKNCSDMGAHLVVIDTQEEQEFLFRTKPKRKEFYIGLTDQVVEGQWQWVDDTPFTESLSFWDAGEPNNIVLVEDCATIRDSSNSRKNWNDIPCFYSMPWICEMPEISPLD
Experimental: as §1, §2, §3

[5] = 0.01 nmol/well, OVA 0, 0.1 and 1 μM, ELISA

Substance: 6,6′-Di-O-(2-hydroxy-4-octabenzyloxybenzoyl)-α,α′-D-trehalose [9a]
- binding to hMincle-Ig (ELISA, OD at 450 nm) [1]: good binding
- activation of mMincle NFAT-GFP reporter cells (GFP by flow cytometry) [2]: strongly activated
- OVA-specific production of IL-17 [3, 5]: significantly augmented
- antigen-specific secretion of IFN-γ [3, 5]: not enhanced
- adjuvant activity in vitro ([3]; 0.1 nmol/well, OVA323-339 peptide 0, 0.1 and 1 μM): displays adjuvant activity in vitro
- binding to mMincle-Ig (ELISA, OD at 450 nm) [4]: good binding

From patent publication US11510980B2, “Brartemicin analogues” (VICTORIA LINK LTD, priority 2017, dated 2022)
